Experimental findings from the supplement of paper PMC10307832 are described below.

Common to all, as to experiment: relative viability (nuclei count vs DMSO), 5 days (fraction); higher = more cells survive
Compound in test [1]: C[C@H]([C@@H](C(=O)N)NC(=O)[C@@H]1CSSC[C@@H](C(=O)N[C@H](C(=O)N[C@@H](C(=O)N[C@H](C(=O)N1)CCCCN)CC2=CNC3=CC=CC=C32)CC4=CC=C(C=C4)O)NC(=O)[C@@H](CC5=CC=CC=C5)N)O [CAP-232]
Put shortly:
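In 1536-well plates, lung cancer cell lines rested overnight at 37 °C before five library-drug doses (not always all listed), √10 apart, were pinned onto vehicle-anchored plates. Nuclei were counted with MetaXpress from 4× Hoechst images taken after 5 days without medium change. Viability compares treated-well with vehicle-well nuclei as a median over plates, and plates needed control CV below 25% plus at least one doubling to pass.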

Compound in test [2]: C[C@H]([C@@H](C(=O)N)NC(=O)[C@@H]1CSSC[C@@H](C(=O)N[C@H](C(=O)N[C@@H](C(=O)N[C@H](C(=O)N1)CCCCN)CC2=CNC3=CC=CC=C32)CC4=CC=C(C=C4)O)NC(=O)[C@@H](CC5=CC=CC=C5)N)O [CAP-232] + C[C@@H](Oc1cc(-c2cnn(C3CCNCC3)c2)cnc1N)c1c(Cl)ccc(F)c1Cl [Crizotinib] (partner 1 µM)
Put shortly: (§1)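 Each reported value is a median over duplicate plates. It expresses relative viability: treated-well nuclei count divided by vehicle-well nuclei count. Lung cancer cell lines in 1536-well plates were dosed by pin tool a day after seeding, alone with one drug or with a fixed anchor-drug dose plus five library-drug doses (not always all listed) in √10 steps, and nuclei were counted after 5 days.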

Compound in test [3]: C[C@H]([C@@H](C(=O)N)NC(=O)[C@@H]1CSSC[C@@H](C(=O)N[C@H](C(=O)N[C@@H](C(=O)N[C@H](C(=O)N1)CCCCN)CC2=CNC3=CC=CC=C32)CC4=CC=C(C=C4)O)NC(=O)[C@@H](CC5=CC=CC=C5)N)O [CAP-232] + Cc1nc(NC(=O)N2CCC[C@H]2C(N)=O)sc1-c1ccnc(C(C)(C)C(F)(F)F)c1 [Alpelisib] (partner 2 µM)
The gist of the method: as §1

Compound in test [4]: C[C@H]([C@@H](C(=O)N)NC(=O)[C@@H]1CSSC[C@@H](C(=O)N[C@H](C(=O)N[C@@H](C(=O)N[C@H](C(=O)N1)CCCCN)CC2=CNC3=CC=CC=C32)CC4=CC=C(C=C4)O)NC(=O)[C@@H](CC5=CC=CC=C5)N)O [CAP-232] + Cc1nc(Nc2ncc(C(=O)Nc3c(C)cccc3Cl)s2)cc(N2CCN(CCO)CC2)n1 [Dasatinib] (partner 0.075 µM)
Put shortly:
as §1

Compound in test [5]: C[C@H]([C@@H](C(=O)N)NC(=O)[C@@H]1CSSC[C@@H](C(=O)N[C@H](C(=O)N[C@@H](C(=O)N[C@H](C(=O)N1)CCCCN)CC2=CNC3=CC=CC=C32)CC4=CC=C(C=C4)O)NC(=O)[C@@H](CC5=CC=CC=C5)N)O [CAP-232] + O=C(c1cc(Cc2n[nH]c(=O)c3ccccc23)ccc1F)N1CCN(C(=O)C2CC2)CC1 [Olaparib] (partner 8 µM)
Put shortly: as §1

For the cell line SK-MES-1, the relative viability in test [1] (0.4 µM) amounted to 1.02; in test [1] (1.265 µM) it was 1.06; in test [1] (4 µM), 1.01; in test [1] (12.65 µM), 0.904; in test [2] (first compound 0.4 µM), 0.965; in test [2] (first compound 1.265 µM), 0.909. Moreover, the relative viability is 0.926 in test [2] (first compound 4 µM); 0.931 in test [2] (first compound 12.65 µM); 0.997 in test [3] (first compound 0.4 µM); 0.944 in test [3] (first compound 1.265 µM); 1.06 in test [3] (first compound 4 µM); 0.938 in test [3] (first compound 12.65 µM). For the same cell line, the relative viability in test [4] (first compound 0.4 µM) is 0.339; in test [4] (first compound 1.265 µM), 0.317; in test [4] (first compound 4 µM), 0.341; in test [4] (first compound 12.65 µM), 0.203; in test [5] (first compound 0.4 µM) it was 0.747; in test [5] (first compound 1.265 µM), 0.718. In addition, the relative viability in test [5] (first compound 4 µM) stood at 0.762; in test [5] (first compound 12.65 µM), 0.607.

For the cell line SW 1573, the relative viability is 0.909 in test [1] (0.4 µM); 0.928 in test [1] (1.265 µM); 1.06 in test [1] (4 µM); 0.495 in test [1] (12.65 µM); 0.785 in test [2] (first compound 0.4 µM); 0.803 in test [2] (first compound 1.265 µM). The relative viability in test [2] (first compound 4 µM) worked out at 0.642; in test [2] (first compound 12.65 µM), 0.81; in test [3] (first compound 0.4 µM) it was 0.744; in test [3] (first compound 1.265 µM), 0.861; in test [3] (first compound 4 µM), 0.8; in test [3] (first compound 12.65 µM), 0.672. Besides, the relative viability in test [4] (first compound 0.4 µM) came to 0.416; in test [4] (first compound 1.265 µM) it was 0.493; in test [4] (first compound 4 µM), 0.603; in test [4] (first compound 12.65 µM), 0.0706; in test [5] (first compound 0.4 µM) it was 0.395; in test [5] (first compound 1.265 µM), 0.416. Also, the values for the relative viability in test [5] (first compound 4 µM) and in test [5] (first compound 12.65 µM) were 0.469 and 0.356, respectively.

For the cell line UMC-11, the relative viability in test [1] (0.4 µM) is 0.917; in test [1] (1.265 µM) it was 0.914; in test [1] (4 µM), 1.08; in test [1] (12.65 µM), 0.95; in test [2] (first compound 0.4 µM), 0.585; in test [2] (first compound 1.265 µM), 0.786. Also, the relative viability in test [2] (first compound 4 µM) came to 0.681; in test [2] (first compound 12.65 µM) it was 0.639; in test [3] (first compound 0.4 µM), 1.06; in test [3] (first compound 1.265 µM), 1.04; in test [3] (first compound 4 µM) it was 1.16; in test [3] (first compound 12.65 µM) it was 0.777. Further, the relative viability in test [4] (first compound 0.4 µM) is 0.621; in test [4] (first compound 1.265 µM), 0.494; in test [4] (first compound 4 µM) it was 0.587; in test [4] (first compound 12.65 µM), 0.316; in test [5] (first compound 0.4 µM) it was 0.358; in test [5] (first compound 1.265 µM), 0.339. Moreover, the relative viability in test [5] (first compound 4 µM) amounted to 0.374; in test [5] (first compound 12.65 µM), 0.248.
